Data: patent publication US20250346550A1, “METHODS OF MODULATING ENDONUCLEASE G USING RESVERATROL AND ITS DERIVATIVES” (THE REGENTS OF THE UNIVERSITY OF COLORADO A BODY CORPORATE, priority 2022, published 2025)

Assays:
[1] = HPLC analysis of resveratrol isomer composition / interconversion; type: physicochemical; conditions: UV irradiation 4 hours at 0° C.; for fraction converted into the other isomer on UV exposure: pure isomer, 50 μM solution
Procedure: FIG. 2. High performance liquid chromatography analysis of resveratrol isomers. a, b, e-g HPLC profiles and peak retention times detected at 303 nm of 1.0 μg commercially “pure” trans-resveratrol (a), 1.0 μg of commercially “pure” cis-resveratrol (b), 20 μL of 50 μM aged trans-resveratrol solution (e), 20 μL of 50 μM commercially “pure” trans-resveratrol solution subjected to UV irradiation for 4 hours at 0° C. (f), and 20 μL of 50 μM commercially “pure” cis-resveratrol solution subjected to UV irradiation for 4 hours at 0° C. (g). Due to the different extinction coefficients of the resveratrol isomers, standard curves of trans-resveratrol (c) and cis-resveratrol (d) were generated by analyzing a series of working solutions for each isomer. Good linear correlations (R^2≥0.9999) were acquired over the concentration range of 0-45 μM trans-resveratrol (c) and 0-110 μM cis-resveratrol (d), with the corresponding regression equations. (h) Compositions of the resveratrol isomers in the indicated samples, without or with UV irradiation (see Methods) as quantified by HPLC.
To confirm the interconversion between trans-resveratrol and cis-resveratrol and to quantitatively measure the ratio of cis- and trans-isomers in the resveratrol solution, we performed high performance liquid chromatography (HPLC) analysis, which can effectively separate trans- and cis-isomers (FIG. 2a, b). […] This ratio of trans- and cis-resveratrol accounts for the unexpected PME inhibition by the aged trans-resveratrol solution (FIG. 1a, b), because cis-resveratrol could inhibit PME (FIG. 1d) and became the dominant isomer in this aged trans-resveratrol solution (FIG. 2h).

[2] = tested on: LGG-1 autophagosome enclosure of MTR-stained paternal mitochondria in zygotes; assay: autophagosome formation on paternal mitochondria (SIM, anti-LGG-1); type: in vivo, C. elegans; conditions: males pretreated with 50 μM; for isolated paternal mitochondria: mock 16%; for paternal mitochondria fully enclosed by autophagosomes: mock 49%
Procedure: FIG. 4. Resveratrol isomers affect autophagosome formation on paternal mitochondria. a-f, Analysis of enclosure of MTR-stained paternal mitochondria by LGG-1 autophagosomes. Zygotes from the indicated crosses with MTR-stained N2 males pretreated with 0.25% ethanol (Mock)(a,b), 50 μM trans-resveratrol (c,d), or 50 μM cis-resveratrol (e,f) were labeled with an antibody to LGG-1. Images were acquired with a Nikon SIM microscope. Dashed rectangles highlight the areas enlarged and shown below ([…]). Scale bars, 2 μm (a,c,e), 0.5 μm (b,d,f). g, Quantification of four types of paternal mitochondria in zygotes that were fully enclosed, partially enclosed, and not enclosed (isolated) by the LGG-1 autophagosomes and that had initiating phagophore, respectively. The number of MTR-stained paternal mitochondria scored in each experiment was shown below the pie chart.
CPS-6 plays a key role in promoting internal breakdown of paternal mitochondria and rapid autophagosome formation on damaged paternal mitochondria following fertilization, which leads to their subsequent degradation by autophagy. We tested if resveratrol isomers affect autophagosome formation on paternal mitochondria using superresolution structured illumination microscopy (SIM). In zygotes from mating of MTR-stained and mock-treated N2 males with unstained N2 hermaphrodites, close to one half (49%) of MTR-stained paternal mitochondria were fully enclosed by autophagosomes labeled by anti-LGG-1 monoclonal antibody (FIG. 4a, b and g). The remaining paternal mitochondria either were partially enclosed by autophagosomes (23%), or had adjacent autophagosome membrane that could initiate the elongation process along the paternal mitochondrion (12%; initiating phagophore), or were isolated (16%) with no nearby autophagosome or phagophore (FIG. 4a, b and g). In zygotes from mating of MTR-stained and trans-resveratrol-treated N2 males with N2 hermaphrodites, autophagosome formation on paternal mitochondria increased dramatically, with 75% of paternal mitochondria fully enclosed and 12% of paternal mitochondria partially enclosed by autophagosomes (FIG. 4c, d and g). […] On the other hand, in zygotes from mating between unstained N2 hermaphrodites and MTR-stained and cis-resveratrol-treated N2 males, autophagosome formation on paternal mitochondria decreased substantially.

Row | SMILES | cis-resveratrol remaining in the mixture after UV exposure [1] [%] | fraction converted into the other isomer on UV exposure [1] [%] | isolated paternal mitochondria [2] [%] | paternal mitochondria fully enclosed by autophagosomes [2] [%] | paternal mitochondria partially enclosed by autophagosomes ([2]; mock 23%) [%]
1 | Oc1ccc(/C=C\c2cc(O)cc(O)c2)cc1 [cis-resveratrol] | 60 | 40 | 31 | 35 | –
2 | Oc1ccc(/C=C/c2cc(O)cc(O)c2)cc1 [trans-resveratrol, 3,5,4′-trihydroxy-trans-stilbene] | – | 68.5 | 7 | 75 | 12
